Values of other authors in patent US20090099261A1, “Omega-3 mixtures” (ISI Brands Inc., priority 2007, published 2009).

Settings: dietary intake; Michael J. James et al., Am. J. Clin. Nutr. 77:1140-45 (2003)

SMILES: CC/C=C\C/C=C\C/C=C\CCCCCCCC(=O)O [LNA, Linolenic acid]
- share of dietary fatty acid converted to EPA: ≤ 10%

SMILES: CC/C=C\C/C=C\C/C=C\C/C=C\CCCCC(=O)O [SA, stearidonic acid]
- share of dietary fatty acid converted to EPA: 40%
